From US6841661B2, “Glycopeptide antibacterial compounds, compositions containing same and methods of using same” (Princeton Univerisity, priority 1999, dated 2005)
≈ marks a conversion by molar mass, not a printed value. Read-outs that look alike come from different tables or passages of the source.

Columns and labels:
[1] = system: E. faecium CL 4931 (VanA); experiment: microbe, parasite or virus in culture; format: cell-based; settings: for MIC, CL4931: E. faecium CL 4931 (VanA)
How it was run: (§1)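 Twofold broth microdilution per modified NCCLS M7-A4, 35 °C. Enterococci and VISA/MRSA in BHI (VISA/MRSA precultured in TSB + 10% HS), E. coli in MH II. Inocula ~1-5×10^6 CFU/ml for enterococci, ~3-7×10^5 CFU/ml otherwise. MIC is the lowest concentration with no visible growth, read at 18-20 hr (E. coli) or 22-24 hr.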

[2] = system: E. faecium CL 5053 (VanA); experiment: microbe, parasite or virus in culture; format: cell-based; settings: for MIC, CL5053: E. faecium CL 5053 (VanA)
How it was run: as §1

[3] = system: E. coli ASP #50 (envA+); experiment: In vitro MIC panel assay (NCCLS broth microdilution); format: cell-based; settings: Escherichia coli
Source text: (§2) National Committee for Clinical Laboratory Standards (NCCLS) guidelines [Methods for Dilution Antimicrobial Susceptibility Tests for Bacteria that Grow Aerobically-Fourth Edition; Approved Standard (NCCLS Document M7-A4, January 1997)] are used to establish the assay, although variations are made to optimize the published method according to the specific needs of the present investigation.
(§3) The test panel currently includes eight enterococci and 13 staphylococci, which are selected based upon their antibiotic susceptibility profiles. The methicillin-sensitive Staphylococcus aureus (MSSA) strain MB2985 (Smith isolate) is used to assesses the potential for serum protein binding of the compounds. The paired Gram-negative strains ASP #49 (envA-) and ASP #50 (envA+) (M. Salvatore/N. Lee) are included to judge membrane effects. Table 3 presents a detailed description of the strains included in the panel, including some of the sources of the strains of bacteria.
(§4) The glycopeptide antibiotic teicoplanin is included whenever possible.
(§5) TSB, containing 10% HS* for vancomycin intermediate S. aurcus/methicillin-resistant S. aureus (VISA/MRSA) strains, is inoculated from an appropriate source (frozen broth or agar slant) and grown approximately 17 hr at 35° C. with shaking at 220 rpm. Cultures are grown in tubes with a volume of 5 ml for enterococci and 2 ml for all other strains.
(§6) Four milliliter (4 ml) overnight culture is added to 36 ml physiological saline to obtain tenfold dilutions (enterococci). Overnight culture (0.4 ml) is added to 39.6 ml saline to obtain 100-fold dilutions (all strains except enterococci). Diluted cultures are maintained on ice until time of inoculation of test plates.
(§7) The number of CFU/mL is determined on BHI agar plates, although this is not done routinely because titers of overnight cultures are relatively constant. The test media include: • BHI for enterococci and VISA/MRSA; • MH II (i.e., cation-adjusted Mueller-Hinton broth) for MRS, MSS and E. coli.; • MH II+HSA for MSSA is prepared as follows: • a. 2×MHII+86mg/ml HSA • b. Dissolve 4.3 g HSA in 50 ml autoclaved 2x MH II. • c. pH to 7.0 by adding 2M MOPS, sodium. • d. Filter sterilize using 0.22 μm Coming cellulose acetate filter, used because of reported low protein binding. • e. 1×MH II+43 mg/ml HSA • f. Dilute the 2×medium twofold and filter as above. 5.8.6. Preparation of Test Plates
(§8) Using a Denley liquid handling system (or similar automatic device), 100 μ1×medium is added to each well in columns 2-12 of a 96-well microtiter dish. Using a multichannel pipettor, 100 μl 2×medium is added to each well in column 1. Plates may be filled on the day prior to assay, wrapped in plastic bags and refrigerated.
(§9) Vancomycin, Schering 29482, and teicoplanin are prepared on a weight per volume basis using 10 mM 3-(N-morpholino)propane-sulfonic acid (MOPS) buffer pH 7. Test compounds are received in solution in appropriate solvent (typically as 1 mg/ml in DMSO) or are dissolved in appropriate solvent prior to further dilution in 10 mM MOPS buffer, ph7. Consistent with NCCLS guidelines, antibiotics are handled aseptically but are not otherwise sterilized.
(§10) 100 μl appropriately diluted antibiotic solution is added to the first well of the designated row of the 96-well microtiter dish and serially diluted by twofold across the row using the Denley liquid handling system. With the aid of a Dynatech NEC 2000 inoculator, each well of the microtiter dish is inoculated with 1.5 μl diluted overnight culture, yielding approximately 1-5×10^6 CFU/ml for enterococci and approximately 3-7×10^5 CFU/ml for all other strains. Dishes are placed in stacks of no more than five, wrapped in plastic bags and incubated at 35° C. • Indication of result(s) type (% INH, IC50, Zone size, etc.) • MIC=minimum inhibitory concentration ps 5.8.9. Interpretation of the Results on the Basis of Activity […]

[4] = system: MRCNS CL 3069 (S. epi.); experiment: as above; format: cell-based
Source text: as §2, §3, §4, §5, §6, §7, §8, §9, §10

[5] = system: MRCNS CL 546 (S. hom.); experiment: as above; format: cell-based
Source text: as §2, §3, §4, §5, §6, §7, §8, §9, §10

[6] = system: E. faecalis CL 4877 (VanB); experiment: microbe, parasite or virus in culture; format: cell-based; settings: for MIC, CL4877: E. faecalis CL 4877 (VanB)
How it was run: as §1

[7] = system: MSSA MB2985 (Smith isolate); experiment: In vitro MIC panel assay, without and with Human Serum Albumin; format: cell-based, Staphylococcus aureus
Source text: as §2, §3
(§11) The glycopeptide antibiotic teicoplanin is included whenever possible. […]
(§12) The number of CFU/mL is determined on BHI agar plates, although this is not done routinely because titers of overnight cultures are relatively constant. […]

[8] = system: MRSA MH 76; experiment: In vitro MIC panel assay (NCCLS broth microdilution); format: cell-based, Staphylococcus aureus; settings: Staphylococcus aureus, MRSA
Source text: as §2, §3, §11, §12

[9] = system: Staphylococcus aureus strain MB2985; experiment: In vivo mouse methicillin-sensitive Staphylococcus aureus septicemia protection; design: species or system ICR female mice
Procedure: Selected compounds of the invention are tested in an in vivo mouse model. Single dose subcutaneous antibiotic protection from septicemic infections is measured as described by Gill, C. J., J. J. Jackson, L. Gerckens, B. Pelak, R. Thompson, J. Sundelof, H. Kropp and H. Rosen. Antimicrob. Agents Chemother. 42:1996-2001 (1998). Survival is monitored for seven days. ED50's and LD50's are determined by the method of Knudsen and Curtis. J. Am. Stat. Assoc. 42:282-296 (1947). Septicemia is induced in 20 gram ICR (derived from CD-I) female mice by intraperitoneal infection with Staphylococcus aureus strain MB2985. Infection is given i.p. in Brain Heart Broth (BHB) at an infectious inoculum of 1.8×10^7 cfu/mouse. Drug is administered subcutaneously immediately after the infection is initiated.

[10] = % Plasma Bound; format: in vitro ADME
[11] = system: CL 4931, CL 5053, CL 5242 and CL 4877; format: cell-based, E. faecium, E. faecalis
How it was run: as §1

[12] = mouse septicemia, S. aureus 2985 i.p. 1.8 × 10^7 cfu/mouse, single s.c. dose at 0 hr, survival seven days

CN[C@H](CC(C)C)C(=O)N[C@H]1C(=O)N[C@@H](CC(N)=O)C(=O)N[C@H]2C(=O)N[C@H]3C(=O)N[C@H](C(=O)N[C@H](C(=O)O)c4cc(O)cc(O)c4-c4cc3ccc4O)[C@H](O)c3ccc(c(Cl)c3)Oc3cc2cc(c3O[C@@H]2O[C@H](CO)[C@@H](O)[C@H](O)[C@H]2O[C@H]2C[C@](C)(N)[C@H](O)[C@H](C)O2)Oc2ccc(cc2Cl)[C@H]1O [Vancomycin, vancomycin, reference compound]
MIC ([1]; Enterococcus faecium): 2050 mg/L (≈ 1410 µM)
MIC, CL4931 ([1]; Table 9): 2050 mg/L (≈ 1410 µM)
MIC, CL4931 ([1]; Table 10): 2050 mg/L (≈ 1410 µM)
CL4931 (in vitro testing) ([1]; Tables 7 and 8, unit not given): 2048
MIC ([2]; Enterococcus faecium): 2050 mg/L (≈ 1410 µM)
MIC, CL5053 ([2]; Table 9): 2050 mg/L (≈ 1410 µM)
MIC, CL5053 ([2]; Table 10): 2050 mg/L (≈ 1410 µM)
CL5053 (in vitro testing) ([2]; Tables 7 and 8, unit not given): 2048
MIC [3]: 256 mg/L (≈ 177 µM)
MIC [4]: 2 mg/L (≈ 1.38 µM)
MIC [5]: 1 mg/L (≈ 0.69 µM)
MIC ([6]; Enterococcus faecalis): 2050 mg/L (≈ 1410 µM)
MIC, CL4877 ([6]; Table 9): 2050 mg/L (≈ 1410 µM)
MIC, CL4877 ([6]; Table 10): 2050 mg/L (≈ 1410 µM)
CL4877 (in vitro testing) ([6]; Tables 7 and 8, unit not given): 2048
MIC ([7]; MSSA MB2985 + HSA, MH II broth ctg. 43 mg/ml Human Serum Albumin Frac. V): 1 mg/L
N-fold MIC inc. + HSA ([7]; MSSA MB2985, MIC with HSA relative to without): (1) fold
MIC [8]: 1 mg/L (≈ 0.69 µM)
ED50/MIC ([9]; S. aureus 2985, ratio of s.c. ED50 to MIC): 2.33
ED50 ([9]; Staphylococcus aureus, MB2985, mouse septicemia, S. aureus 2985 i.p. 1.8 × 10^7 cfu/mouse, single s.c. dose at 0 hr, survival seven days): 1.17 mg/kg
ED0 (s.c.) [9, 12]: ≦0.195 mg/kg
ED100 (s.c.) [9, 12]: 3.125 mg/kg
% Plasma Bound [10]: 55%
Mean ([11]; Table 9, mean MIC over CL4931, CL5053, CL5242, CL4877): 1664.0
Mean ([11]; Table 10, mean MIC over CL4931, CL5053, CL5242, CL4877): 1536.0
Mean ([11]; mean of CL4931, CL5053, CL5242, CL4877, unit not given): 1664.0
